Data on 16 molecules can be found in ChEMBL document CHEMBL1146637, “Structure-activity relationship in the oxazolidinone-quinolone hybrid series: influence of the central spacer on the antibacterial activity and the mode of action” (Bioorg Med Chem Lett, 2003).

Assay [1] relates to Enterococcus faecium. The assay can be described thus: In vitro antibacterial activity against vancomycin and ciprofloxacin resistant Enterococcus faecium (Efm CIP) was determined. In kind it is functional.
The test system of assay [2] is Staphylococcus aureus. The assay can be described thus: In vitro antibacterial activity against ciprofloxacin and methicillin resistant Staphylococcus aureus (Sau2CIP) was determined. The assay is classed as functional.
Assay [3] relates to Enterococcus faecalis. Nature of the assay: In vitro antibacterial activity against Enterococcus faecalis ATCC 29212 (Efs) was determined. In kind it is functional.
Assay [4] has as its system Staphylococcus aureus. Nature of the assay: In vitro antibacterial activity against oxazolidinone Linezolid resistant Staphylococcus aureus (Sau3LZD) was determined. In kind it is functional.
The test system of assay [5] is Escherichia coli. The assay can be described thus: In vitro antibacterial activity against Escherichia coli AS19 (Eco2), permeable mutant was determined. The assay is classed as functional.
In assay [6] the test system is Haemophilus influenzae. The assay can be described thus: In vitro antibacterial activity against Haemophilus influenzae 11 (Hin) was determined. In kind it is functional.
In assay [7] the test system is Escherichia coli. Nature of the assay: In vitro antibacterial activity against Escherichia coli ATCC 25922 (Ecol) was determined. In kind it is functional.
The subject of assay [8] is Staphylococcus aureus. Nature of the assay: In vitro antibacterial activity against […] Staphylococcus aureus ATCC 29213 (Saul). In kind it is functional.
A short description of assay [9]: Inhibitory activity against Escherichia coli Topoisomerase IV in relaxation assay. The assay is classed as functional.
Assay [10] addresses DNA gyrase (Escherichia coli, UniProt P0AES4+P0AES6). Nature of the assay: Inhibitory activity against DNA gyrase enzyme was determined by supercoiling assay with Escherichia coli DNA gyrase. In kind it is protein-complex assay.
In assay [11] the test system is Escherichia coli. The assay can be described thus: In vitro inhibitory activity against protein synthesis was determined by transcription/translation assay with Escherichia coli S30 Extract System. The assay is classed as functional.

Each structure is given as a SMILES string. In brackets after ≈: the same amount, converted by molar mass.

Turning to `CC(=O)NC[C@H]1CN(c2ccc(OCCC3CCN(c4nc5c(cc4F)c(=O)c(C(=O)O)cn5C4CC4)C3)c(F)c2)C(=O)O1` (stereo not given in full), the MIC was 0.125 µg/mL (≈ 0.204 µM) in [1]; 0.125 µg/mL (≈ 0.204 µM) in [2]; 0.06 µg/mL (≈ 0.0981 µM) in assay [3]; 0.125 µg/mL (≈ 0.204 µM) in [4]; no more than 0.06 µg/mL in assay [5]; 0.5 µg/mL (≈ 0.818 µM) in [6]. For the same molecule, the MIC is 2 µg/mL (≈ 3.27 µM) in assay [7] and 0.125 µg/mL (≈ 0.204 µM) in assay [8].
Regarding `CC(=O)NC[C@H]1CN(c2ccc(OC[C@@H]3CCN(c4nc5c(cc4F)c(=O)c(C(=O)O)cn5C4CC4)C3)c(F)c2)C(=O)O1`, the MIC was 0.5 µg/mL (≈ 0.837 µM) in assay [1]; 0.25 µg/mL (≈ 0.418 µM) in [2]; 0.125 µg/mL (≈ 0.209 µM) in assay [3]; no more than 0.06 µg/mL in assay [4]; no more than 0.06 µg/mL in [5]; 0.125 µg/mL (≈ 0.209 µM) in assay [6]. Further, the figures for the MIC in assay [7] and in [8] were 1 µg/mL (≈ 1.67 µM) and no more than 0.06 µg/mL, respectively.
For `CC(=O)NC[C@H]1CN(c2ccc(OC3CCN(c4nc5c(cc4F)c(=O)c(C(=O)O)cn5C4CC4)CC3)c(F)c2)C(=O)O1`, the MIC was determined as 0.25 µg/mL (≈ 0.418 µM) in [1]; 0.25 µg/mL (≈ 0.418 µM) in assay [2]; 0.125 µg/mL (≈ 0.209 µM) in assay [3]; 1 µg/mL (≈ 1.67 µM) in assay [4]; 0.25 µg/mL (≈ 0.418 µM) in [5]; 1 µg/mL (≈ 1.67 µM) in assay [6]. The MIC is 32 µg/mL (≈ 53.5 µM) in assay [7] and 0.25 µg/mL (≈ 0.418 µM) in assay [8]. The IC50 in assay [9] turned out to be 5 µM; in assay [10], 50 µM; in assay [11] it was 5.2 µM.
Take `CC(=O)NC[C@H]1CN(c2ccc(OC3CCCN(c4nc5c(cc4F)c(=O)c(C(=O)O)cn5C4CC4)CC3)c(F)c2)C(=O)O1` (stereo not given in full): the MIC in assay [1] is 0.5 µg/mL (≈ 0.818 µM); in [2] it was 0.25 µg/mL (≈ 0.409 µM); in assay [3], 0.25 µg/mL (≈ 0.409 µM); in assay [4] it was 0.5 µg/mL (≈ 0.818 µM); in [5], no more than 0.06 µg/mL; in assay [6], 1 µg/mL (≈ 1.64 µM). For the same molecule, the MIC in [7] was 8 µg/mL (≈ 13.1 µM); in assay [8], 0.5 µg/mL (≈ 0.818 µM).
For the molecule `CC(=O)NC[C@H]1CN(c2ccc(OCC3CCN(c4nc5c(cc4F)c(=O)c(C(=O)O)cn5C4CC4)C3)c(F)c2)C(=O)O1` (stereo not given in full), the MIC in assay [1] was 0.25 µg/mL (≈ 0.418 µM); in assay [2] it was 0.125 µg/mL (≈ 0.209 µM); in assay [3] it was 0.125 µg/mL (≈ 0.209 µM); in assay [4], no more than 0.06 µg/mL; in [5], no more than 0.06 µg/mL; in assay [6], 0.125 µg/mL (≈ 0.209 µM). Further, the MIC in [7] amounted to 1 µg/mL (≈ 1.67 µM); in assay [8], 0.125 µg/mL (≈ 0.209 µM). The IC50 in [10] was 2 µM; in assay [11], 1.5 µM.
`CC(=O)NC[C@H]1CN(c2ccc(OC3CCCN(c4nc5c(cc4F)c(=O)c(C(=O)O)cn5C4CC4)C3)c(F)c2)C(=O)O1` (stereo not given in full): the MIC was greater than 32 µg/mL in [1]; 16 µg/mL (≈ 26.8 µM) in assay [2]; 16 µg/mL (≈ 26.8 µM) in [3]; 16 µg/mL (≈ 26.8 µM) in assay [4]; 8 µg/mL (≈ 13.4 µM) in [5]; 2 µg/mL (≈ 3.35 µM) in [6]. The MIC in assay [7] is greater than 32 µg/mL; in assay [8], 32 µg/mL (≈ 53.5 µM).
Consider `CC(=O)NC[C@H]1CN(c2ccc(O[C@@H]3CCN(c4nc5c(cc4F)c(=O)c(C(=O)O)cn5C4CC4)C3)c(F)c2)C(=O)O1`, for which the MIC in assay [1] was 2 µg/mL (≈ 3.43 µM); in assay [2], 0.5 µg/mL (≈ 0.857 µM); in assay [3], 0.5 µg/mL (≈ 0.857 µM); in [4], 0.5 µg/mL (≈ 0.857 µM); in [5], no more than 0.06 µg/mL; in assay [6] it was 0.5 µg/mL (≈ 0.857 µM). Also, the MIC in assay [7] came to 8 µg/mL (≈ 13.7 µM); in [8] it was 1 µg/mL (≈ 1.71 µM).
In the case of `CC(=O)NC[C@H]1CN(c2ccc(N[C@@H]3CCN(c4nc5c(cc4F)c(=O)c(C(=O)O)cn5C4CC4)C3)c(F)c2)C(=O)O1`, the MIC in [1] was 8 µg/mL (≈ 13.7 µM); in assay [2] it was 1 µg/mL (≈ 1.72 µM); in assay [3], no more than 0.06 µg/mL; in [4], no more than 0.06 µg/mL; in assay [5] it was no more than 0.06 µg/mL; in [6], no more than 0.06 µg/mL. Also, the MIC in assay [7] is 0.5 µg/mL (≈ 0.858 µM); in assay [8] it was no more than 0.06 µg/mL.
`CC(=O)NC[C@H]1CN(c2ccc(OCC3CCN(c4nc5c(cc4F)c(=O)c(C(=O)O)cn5C4CC4)CC3)c(F)c2)C(=O)O1`: the MIC in [1] was 0.125 µg/mL (≈ 0.204 µM); in assay [2], 0.125 µg/mL (≈ 0.204 µM); in assay [3], no more than 0.06 µg/mL; in assay [4] it was 1 µg/mL (≈ 1.64 µM); in assay [5] it was 0.125 µg/mL (≈ 0.204 µM); in [6], 0.5 µg/mL (≈ 0.818 µM). In addition, the figures for the MIC in assay [7] and in assay [8] were greater than 32 µg/mL and 0.125 µg/mL (≈ 0.204 µM), respectively.
Turning to `CC(=O)NC[C@H]1CN(c2ccc(OC[C@H]3CCN(c4nc5c(cc4F)c(=O)c(C(=O)O)cn5C4CC4)C3)c(F)c2)C(=O)O1`, the MIC in assay [1] was 0.125 µg/mL (≈ 0.209 µM); in [2], 0.125 µg/mL (≈ 0.209 µM); in assay [3], 0.06 µg/mL (≈ 0.1 µM); in [4] it was 0.125 µg/mL (≈ 0.209 µM); in [5], no more than 0.06 µg/mL; in assay [6] it was 0.25 µg/mL (≈ 0.418 µM). The MIC in assay [7] worked out at 1 µg/mL (≈ 1.67 µM); in [8], 0.125 µg/mL (≈ 0.209 µM).
As for `CC(=O)NC[C@H]1CN(c2ccc(OC3CN(c4nc5c(cc4F)c(=O)c(C(=O)O)cn5C4CC4)C3)c(F)c2)C(=O)O1`, the MIC in assay [1] was 2 µg/mL (≈ 3.51 µM); in assay [2], 0.5 µg/mL (≈ 0.878 µM); in [3], 0.5 µg/mL (≈ 0.878 µM); in [4], no more than 0.06 µg/mL; in [5], no more than 0.06 µg/mL; in assay [6] it was 0.125 µg/mL (≈ 0.219 µM). Moreover, the figures for the MIC in [7] and in assay [8] were 1 µg/mL (≈ 1.76 µM) and 0.25 µg/mL (≈ 0.439 µM), respectively.
On to `CC(=O)NC[C@H]1CN(c2ccc(OCCC3CCN(c4nc5c(cc4F)c(=O)c(C(=O)O)cn5C4CC4)CC3)c(F)c2)C(=O)O1`, for which the MIC in assay [1] is 0.125 µg/mL (≈ 0.2 µM); in assay [2], 0.125 µg/mL (≈ 0.2 µM); in [3], 0.125 µg/mL (≈ 0.2 µM); in assay [4], 1 µg/mL (≈ 1.6 µM); in assay [5] it was no more than 0.06 µg/mL; in assay [6], 2 µg/mL (≈ 3.2 µM). For the same molecule, the MIC in [7] is greater than 32 µg/mL; in [8] it was 0.125 µg/mL (≈ 0.2 µM).
In the case of `CC(=O)NC[C@H]1CN(c2ccc(N3CCN(c4nc5c(cc4F)c(=O)c(C(=O)O)cn5C4CC4)CC3)c(F)c2)C(=O)O1`, the MIC in [1] came to 0.25 µg/mL (≈ 0.429 µM); in assay [2], 0.25 µg/mL (≈ 0.429 µM); in assay [3] it was 0.125 µg/mL (≈ 0.215 µM); in assay [4], 8 µg/mL (≈ 13.7 µM); in assay [5], 0.06 µg/mL (≈ 0.103 µM); in [6], 1 µg/mL (≈ 1.72 µM). In addition, the MIC in assay [7] turned out to be 32 µg/mL (≈ 54.9 µM); in assay [8], 0.25 µg/mL (≈ 0.429 µM). The concentration for half-maximal inhibition (IC50) in assay [9] was 10 µM; in [10], 50 µM; in [11], 2.8 µM.
`CC(=O)NC[C@H]1CN(c2ccc(O[C@H]3CCN(c4nc5c(cc4F)c(=O)c(C(=O)O)cn5C4CC4)C3)c(F)c2)C(=O)O1`: the MIC in [1] was 1 µg/mL (≈ 1.71 µM); in assay [2] it was 0.25 µg/mL (≈ 0.428 µM); in assay [3], 0.125 µg/mL (≈ 0.214 µM); in assay [4], no more than 0.06 µg/mL; in assay [5], no more than 0.06 µg/mL; in assay [6] it was no more than 0.06 µg/mL. Further, the MIC was 1 µg/mL (≈ 1.71 µM) in assay [7] and no more than 0.06 µg/mL in assay [8]. Further, the results for the half-maximal inhibitory concentration (IC50) in assay [9], in assay [10] and in assay [11] were 3 µM, 10 µM and 6.7 µM, respectively.
On to `O=C(O)c1cn(C2CC2)c2cc(N3CCNCC3)c(F)cc2c1=O` [CIPROFLOXACIN], for which the MIC is greater than 32 µg/mL in assay [1]; greater than 32 µg/mL in [2]; 1 µg/mL (≈ 3.02 µM) in [3]; 0.5 µg/mL (≈ 1.51 µM) in assay [4]; no more than 0.03 µg/mL in assay [5]; no more than 0.03 µg/mL in [6]. Also, the figures for the MIC in assay [7] and in [8] were no more than 0.03 µg/mL and 0.5 µg/mL (≈ 1.51 µM), respectively. The half-inhibitory concentration (IC50) was 2.5 µM in [9] and greater than 20 µM in assay [11].
For `CC(=O)NC[C@H]1CN(c2ccc(N3CCOCC3)c(F)c2)C(=O)O1` [LINEZOLID], the MIC was 2 µg/mL (≈ 5.93 µM) in assay [1]; 1 µg/mL (≈ 2.96 µM) in assay [2]; 64 µg/mL (≈ 190 µM) in [4]; 8 µg/mL (≈ 23.7 µM) in assay [5]; 8 µg/mL (≈ 23.7 µM) in assay [6]; greater than 64 µg/mL in assay [7]. Besides, the IC50 in [11] was determined as 4.1 µM.
